According to patent US12180159B2, “Activators of the unfolded protein response” (The Board of Trustees of the University of Illinois, priority 2018, dated 2024):

Tests used:
MCF-7 cells = experiment: Alamar blue fluorescence 24-hour cell death assay, MCF-7; type: cell-based, human; conditions: MCF7, 24 hour incubation, Alamar Blue (FIG. 4)
Method: ALAMAR BLUE/RAPTINAL ASSAY: Live cells maintain a reducing environment. The non-fluorescent cell permeable ingredient of Alamar Blue® (resazurin) is taken up by cells. In living cells, it is reduced to the fluorescent compound resorufin. Using a standard curve of cell number versus fluorescence the number of live cells in a test sample can be determined. At high concentrations raptinal kills 100% of cells. The vehicle in which the test compound is dissolved is not toxic. Thus, after subtracting the blank for medium alone, the fluorescence reading for vehicle corresponds to 100% viable cells and the signal for raptinal corresponds to 0% viable cells. […]
ALAMAR BLUE RAPTINAL ASSAYS: Cells were plated at 4,000-10,000 cells/well (96 well plate), usually in 50 μl of medium. […] After 24 hours Alamar Blue reagent was added and fluorescence in the wells was read (BMG PheraStar or Molecular Devices Spectra Max M3 Microplate Reader). % relative death was determined by setting the reading for raptinal-treated cells to 100% dead cells and the reading for vehicle-treated cells to 0% dead cells.
Preparative gram-scale chiral separation of (±)-1 yields enantiopure (R)-1 and (S)-1 with opposite optical rotations (Scheme 5). […] Values were obtained after 24-hour incubation utilizing Alamar blue fluorescence assay normalized to live and death controls (vehicle and raptinal treated). […]

[1] = system: partially BHPI-resistant T47D clones 1, 3, 8, and 11; experiment: Growth of partially BHPI-resistant T47D clones (MTS); type: cell-based, human; conditions: 100 nM and 1 μM, 4 days
Method: ERα containing T47D human breast cancer cells able to survive in 1 μM BHPI were selected by clonal outgrowth. The effect of 100 nM and 1 μM BHPI and (−)-105 on growth of the (BHPI-sensitive) parental T47D cells and partially BHPI-resistant T47D clones 1, 3, 8, and 11 was evaluated. 4,000 cells/well were plated. Cell number was determined by MTS assay from a standard curve of absorbance versus cell number. […] Thus, in 4 days (−)-105 killed some, but not all, of the resistant cells.

[2] = Pharmacokinetics, brain penetration and tolerability in mice; type: in vivo, mouse
Method: FIG. 40. SERK-F6 is tolerated, reaches biologically relevant concentrations, and crosses the blood-brain barrier in vivo. a, Serum concentrations of SERK-F6 after indicated doses, route of administration, and time. Concentration was determined via LC/MS/MS analysis. […] AUC: Area Under the Curve, Cmax: maximum concentration, t1/2: half-life. c,d, Mice (CD-1) were treated with the indicated doses and times, then sacrificed and their serum and brains collected. Concentrations were determined via LC/MS/MS analysis. […] Treatment arms: vehicle daily (n=3), vehicle weekly (n=3), fulv. weekly (5 mg/mouse, s.c., n=6), SERK-F6 daily (10 or 40 mg/kg p.o.). Vehicle arms were combined. g, Mass of tumors harvested from mice. h, observed murine weight during this MCF-7 study (n=6). i,j, Tumor measurements for MCF-7 bilateral orthotopic model (n=4-5).
The pharmacokinetics of SERK-F6 was measured in mice (FIG. 40A-B).

[3] = system: D538G mutant tumors (TDG cell line); experiment: TDG-luc orthotopic tumor model; type: in vivo, mouse
From the text: (§1) FIG. 41. SERK-F6 eradicates mutant ERα primary and metastatic breast cancer. a-c, TYS-luc. orthotopic tumors were established in NSG ovariectomized mice (no E2 pellet, 60 days to establish) and dosed daily as indicated (n=5-6). b, representative examples of bioluminescence images of SERK-F6 treated mice (7 days). d,e, TDG-luc. orthotopic tumors were established in NSG ovariectomized mice (no E2 pellet, 120 days to establish) and dosed daily as indicated (n=4-5). e, Bioluminescence image of SERK-F6 treated mouse with TDG-luc. tumor burden after 7 days. f, MYS-luc. orthotopic tumors were established in NSG ovariectomized mice (no E2 pellet, 45 days to establish) and dosed daily as indicated (n=4-5). g, MDG-luc. orthotopic tumors were established in NSG ovariectomized mice (no E2 pellet, 45 days to establish) and dosed daily as indicated (n=4-5). h, Metastatic model with MDG-luc. cells injected into the tail-vein of NSG ovariectomized mice (no E2 pellet, 1.5 months to establish) and mice were dosed daily as indicated (n=4-5).
FIG. 4A illustrates how IC50's for cell death were determined. 4B tests the ability BHPI, (−)-105, and 01-15 to kill. […] Large orthotopic breast tumors of TYD-Luc cells (T47DERαD538G-luciferase human breast cancer cells) were allowed to form for 4 months in immune suppressed NSG mice. […]

[4] = system: Y537S tumors (TYS cell line); experiment: TYS-luc orthotopic tumor model, SERK-F6 i.p. and oral; type: in vivo, mouse
From the text: as §1
SERK-F6 treatment was again tolerated (FIG. 42E) at higher doses and enough to eradicate tumors (FIG. 42F).

O=C1Nc2c(C(F)(F)F)cccc2C1(c1ccc(O)cc1)c1ccc(OC(F)(F)F)cc1 (single isomer, unassigned; (-)) [(−)-105, 3-(4-hydroxyphenyl)-3-(4-(trifluoromethoxy)phenyl)-7-(trifluoromethyl)indolin-2-one]
ability to kill compared with BHPI and 01-15 (MCF-7 cells): superior to BHPI and 01-15
growth of the BHPI-resistant clones [1]: completely blocked the growth of the resistant clones
blood-brain barrier penetration [2]: blood-brain barrier penetrant
tolerability in vivo [2]: well-tolerated
efficacy when administered orally ([3]; 40 mg/kg oral gavage, 3 days): effective when administered orally
effect on D538G mutant tumors ([3]; mouse, in vivo): destruction of D538G mutant tumors
tumor regrowth at sub-therapeutic dose ([4]; 10 mg/kg oral): tumors did regrow
tumor regrowth upon treatment cessation ([4]; after treatment cessation): tumors did not regrow
effect on Y537S tumors ([4]; dose-dependent, i.p. and oral administration): eradicates Y537S tumors
